Here are results for 12 molecules from PubChem BioAssay (NCI).

Assay in all cases: NCI anticancer screen, dose series, 48 h
In assay [1] the test system is MDA-MB-435.
Assay [2] concerns 786-0 renal.
Assay [3] has as its system SK-OV-3 ovarian.
Assay [4] relates to MALME-3M melanoma.
For assay [5], the system named is HCT-116 colon.
Assay [6] concerns HOP-62 NSCLC.
In assay [7] the test system is SNB-19 CNS.
Assay [8] concerns HS 578T breast.
Assay [9] has as its system TK-10 renal.
The test system of assay [10] is SF-539 CNS.

Where “and” joins values, the source holds several entries; their conditions need not be identical. Identical values can stand only once.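 Method: 48-hour compound exposure of cells in 96-well plates, five concentrations, linear interpolation of endpoints. GI50 marks 50% less growth. At the TGI there is no net growth.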 *1 amine or outer side, *2 acyl side, *3 side chain or, on linkers, in order; H or OH if unused. Where a SMILES comes first, the peptide text is derived from it. Bridges are numbered along the chain shown (N, C = ends). [ ]: non-standard residue; d: D form. The star is where a group is joined. Phe(3-Me) = Cc1cccc(C[C@H](N)C(=O)O)c1; NH(4-Cl-2-F-phenyl) = Fc1cc(Cl)ccc1N*; Pro(4R-Me) = C[C@H]1CN[C@H](C(=O)O)C1; Hyp = O=C(O)[C@@H]1C[C@@H](O)CN1; aThr = C[C@H](O)[C@H](N)C(=O)O; Pip = O=C(O)[C@@H]1CCCCN1; CO = O=C([*:1])[*:2] A value given as a limit tells only on which side of the number the result lay.

On to `Cc1cc2c(C(N)=O)cccc2n1-c1nc2c(c(NCc3ccccc3)n1)CCCN2`, for which the GI50 in assay [1] is 0.164 µM; in [2] it was 0.248 µM; in [3], 0.32 µM; in assay [4], 0.178 µM; in assay [5], 0.0831 µM; in [6] it was 0.217 µM. Also, the GI50 in [7] was 0.296 µM; in assay [8], 0.262 µM; in [9], 0.378 µM; in [10], 0.205 µM. In addition, the TGI in assay [1] was 0.322 µM; in [2], 0.519 µM; in assay [3] it was 0.813 µM; in assay [4], 0.346 µM; in [5], 0.631 µM; in [6] it was 0.454 µM. Also, the TGI in assay [7] is 0.765 µM; in assay [8], 0.745 µM; in [9], 0.809 µM; in assay [10], 0.423 µM.

For `CNC1NC(=O)c2ccccc2N1Cc1ccc(F)cc1` (stereo not given), the TGI in assay [1], in assay [2], in assay [3], in assay [4], in assay [5] and in [6] was more than 100 µM each time. Further, the TGI in [7], in assay [8], in assay [9] and in assay [10] was more than 100 µM each time.

Consider `C#CC[C@H](c1nc2cc(Cl)ccc2c(=O)n1Nc1ccccc1)N(CCCN)C(=O)c1cccc(Cl)c1F`, for which the GI50 in [1] is 0.0281 µM; in assay [2] it was 1.15 µM; in [3], 0.116 µM; in assay [4], 1.05 µM; in assay [5] it was 0.0403 µM; in assay [6] it was 0.842 µM. Further, the GI50 is 0.52 µM in assay [7], 0.162 µM in assay [8], 1.39 µM in assay [9] and 0.183 µM in assay [10]. In addition, the TGI in [1] came out at 0.0915 µM; in [2], 2.63 µM; in assay [3], 1.59 µM; in assay [4], 2.45 µM; in assay [5], 1.3 µM; in assay [6] it was 2.23 µM. The TGI in assay [7] is 7.85 µM; in assay [8], 1.19 µM; in [9], 2.8 µM; in assay [10], 0.65 µM.

As to `CCc1oc2ccccc2c1C(=O)c1cc(Br)c(O)c(Br)c1`, the TGI in assay [1] is more than 100 µM; in assay [2] it was 55.6 µM; in assay [3], more than 100 µM; in assay [4], 43.2 µM; in [5], 55.7 µM; in [6], 85.7 µM. For the same molecule, the TGI in assay [7] was more than 100 µM; in [8], 59 µM; in assay [9], 64.9 µM; in [10] it was 32.9 µM.

`COc1cc(-c2cc(-c3nc4ccccc4[nH]3)[nH]n2)cc(OC)c1OC`: the GI50 in [1] is 2.35 µM; in assay [2] it was 3.66 µM; in assay [3], 3.48 µM; in assay [4], 1.95 µM; in assay [5], 3.16 µM; in [6], 3.54 µM. Besides, the GI50 in assay [7] was 17.8 µM; in [8], 6.89 µM; in [9], 4.07 µM; in assay [10], 5.11 µM. The TGI in [1] came out at 7.61 µM; in assay [2], 15.5 µM; in [3], 9.74 µM; in assay [4] it was 8.49 µM; in assay [5], 16.8 µM; in assay [6], 16.7 µM. Besides, the TGI in assay [7] is more than 100 µM; in assay [8] it was more than 100 µM; in assay [9], 22.8 µM; in assay [10], 18.9 µM.

As for `COc1cccc(/C=C/C(=O)c2cc3c(N)c(C(=O)Nc4cccc(Cl)c4C)sc3nc2C)c1`, the GI50 is 0.345 µM in [1]; 0.823 µM in assay [2]; 2.2 µM in [3]; 1.34 µM in [4]; 0.605 µM in [5]; 1.1 µM in [6]. The GI50 in [7] is 1.29 µM; in assay [8], 1.71 µM; in assay [9], 1.53 µM; in assay [10], 0.967 µM. The TGI is 1.32 µM in assay [1]; 1.83 µM in assay [2]; more than 50 µM in [3]; 7.76 µM in assay [4]; 1.42 µM in assay [5]; 4.64 µM in assay [6]. For the same molecule, the TGI is 6.18 µM in assay [7], more than 50 µM in assay [8], 8.19 µM in assay [9] and 2.01 µM in assay [10].

As to `CCOC(=O)C(Cc1c[nH]c2cc([N+](=O)[O-])ccc12)(NC(C)=O)C(=O)OCC`, the GI50 in [1] is more than 649 µM; in assay [2], 175 µM; in assay [3], 184 µM; in assay [4], 171 µM; in assay [5] it was 390 µM; in assay [6], 161 µM. Further, the GI50 in assay [7] is 148 µM; in assay [8], 61.3 µM; in [9], 296 µM; in assay [10] it was 68.3 µM and 84.2 µM. For the same molecule, the TGI in [1] was more than 1000 µM; in assay [2], more than 754 µM; in assay [3] it was more than 1000 µM; in assay [4], more than 1000 µM; in assay [5] it was more than 1000 µM; in assay [6] it was 461 µM. Moreover, the TGI in assay [7] was more than 824 µM; in assay [8] it was more than 798 µM; in [9], more than 760 µM; in assay [10], 330 µM.

On to `O=C(c1cc(-c2cc3c(cc2C(=O)N2Cc4ccccc4C[C@H]2CN2CCOCC2)OCO3)n2c1CCCC2)N(c1ccccc1)c1ccc(O)cc1`, for which the GI50 in assay [1] is 8.55 µM; in assay [2], 45.9 µM; in assay [3] it was 12.7 µM; in assay [4], 15.6 µM; in assay [5], 13.6 µM; in [6] it was 64.4 µM. Also, the GI50 in assay [7] was 7.13 µM; in assay [8], 6.05 µM; in [9], 27.8 µM; in assay [10], 15.7 µM. Moreover, the TGI is 98.9 µM in [1]; more than 100 µM in assay [2]; more than 100 µM in assay [3]; more than 100 µM in assay [4]; more than 100 µM in assay [5]; more than 100 µM in [6]. The TGI in [7], in assay [8], in assay [9] and in [10] was more than 100 µM in each case.

Turning to `O=C1C(Cl)=C(N2CCOCC2)C(=O)c2ccccc21`, the GI50 is 1.95 µM in assay [1]; 16.6 µM in assay [2]; 18.3 µM in assay [3]; 2.55 µM in [4]; 1.86 µM in assay [5]; 17.4 µM in assay [6]. The GI50 is 16.1 µM in assay [7], 20.8 µM in assay [8], 16.7 µM in assay [9] and 20.1 µM in assay [10]. In addition, the TGI in [1] worked out at 3.72 µM; in assay [2], 31.2 µM; in [3] it was 32.2 µM; in [4], 4.85 µM; in [5], 3.37 µM; in [6], 31.3 µM. For the same molecule, the TGI in assay [7] came to 30.1 µM; in assay [8], 69.6 µM; in [9] it was 30.4 µM; in assay [10] it was 34.6 µM.

Turning to `O=[N+]([O-])c1cc(Br)cc2c1[nH]c1ccc(Br)cc12`, the GI50 in assay [1] was 20.6 µM; in assay [2], 5.47 µM; in [3], 3.59 µM; in assay [4], 10.8 µM; in [5], 5 µM; in assay [6] it was 2.11 µM. Besides, the GI50 in [7] is 16.1 µM; in assay [8], 2.25 µM; in [9], 2.46 µM; in [10] it was 12.2 µM. Moreover, the TGI in assay [1] is more than 100 µM; in [2], 27.4 µM; in [3], 15.4 µM; in assay [4], 66.3 µM; in [5], 21.5 µM; in assay [6] it was 5 µM. Further, the TGI in assay [7] is 70.8 µM; in assay [8], 20 µM; in [9] it was 8.48 µM; in [10] it was 71.7 µM.

As to `CCOC(=O)C#Cc1ccc(C#CC(=O)OCC)cc1`, the TGI was 3.86 µM in assay [1]; more than 27.9 µM in assay [2]; 84.2 µM in [3]; 21.3 µM in assay [4]; 11.2 µM in assay [5]; more than 29.3 µM in [6]. Moreover, the TGI in assay [7] is more than 38.3 µM; in [8], 29 µM; in [9], 17.8 µM; in assay [10], more than 47.5 µM.

On to `Cc1cccc(C[C@H](NC(=O)Nc2ccc(Cl)cc2F)C(=O)N[C@@H]2C(=O)N3C[C@H](O)C[C@H]3C(=O)N3CCCC[C@H]3C(=O)N[C@@H](C)C(=O)N3C[C@H](C)C[C@H]3C(=O)O[C@H]2C)c1` ({NH(4-Cl-2-F-phenyl)-CO}-[Phe(3-Me)][aThr][Hyp][Pip]A[Pro(4R-Me)]; ester 2-C), for which the GI50 in [1] is 0.438 µM; in [2], 1.28 µM; in [3] it was 0.501 µM; in assay [4], 0.553 µM; in assay [5], 0.404 µM; in assay [6], 0.484 µM. The GI50 is 0.381 µM in assay [7], 0.455 µM in assay [8], 1.78 µM in assay [9] and 0.733 µM in assay [10]. In addition, the TGI was 1.74 µM in [1]; 7.69 µM in assay [2]; 3.52 µM in assay [3]; 2.19 µM in assay [4]; 1.66 µM in assay [5]; 3.62 µM in [6]. For the same molecule, the TGI in [7] turned out to be 11.3 µM; in [8], 3.58 µM; in assay [9], 10.1 µM; in assay [10], 2.29 µM.
